Laboratory results published in US9108972B2, “Salts of DPP-IV inhibitor” (Cadila Healthcare Limited, priority 2011, dated 2015).

Assays:
[1] = Stability study on storage (25° C. ± 2° C./60% ± 5% RH) for 3 months
Procedure: The complete x-ray powder spectrum, which was recorded with a Rigaku multifelx 2.0 Kilowatt X-ray powder diffractometer model using copper radiation. The X-ray diffraction pattern was recorded by keeping the instrument parameters listed below:
i) X-ray: Cu/40 kv/30 mA, Diverging slit: 1°, Scattering slit: 1°, Receiving slit: 0.15 mm, Monochromator RS: 0.8 mm, Counter: Scintillation counters;
Scan mode: Continuous, Scan speed: 4.000 deg./min., Sampling width: 0.010°,
Scan axes: 2 theta vs CPS, Scan range: 4° to 40.0°, Theta offset: 0.000.
iv) (2R)-4-oxo-4-[3-(trifluoromethyl)-5,6-dihydro[1,2,4]-triazolo[4,3-a]pyrazin-7(8H)-yl]-1-(2,4,5-trifluorophenyl)butan-2-amine and its salts were analyzed for purity by analytical HPLC at λmax 210 nm using column YMC-C8, 250 mm×4.6 mm×4 mm or its equivalent on AGILENT 1100 series under the following conditions, Detector: UV absorption photometer Wave length: 210 nm Column temp.: 25° C. Flow rate: 1.0 mL/min. Injection Vol.: 10 μL Mobile Phase: 10 mM KH2PO4 (pH-6.8): Acetonitrile (55:45) (2R)-4-oxo-4-[3-(trifluoromethyl)-5,6-dihydro[1,2,4]-triazolo[4,3-a]pyrazin-7(8H)-yl]-1-(2,4,5-trifluorophenyl)butan-2-amine and its salts were analyzed for chiral purity by HPLC at λmax 268 nm using column Chiral-Cel OJ-H, 250 mm×4.6 mm×5μ or its equivalent on Shimadzu LCVP model under the following conditions, Detector: UV absorption photometer Wave length: 268 nm Column temp.: 35° C. Flow rate: 0.8 mL/min.

male C57BLKS/J mice = test: Oral glucose tolerance test (OGTT) in male C57 mice; assay type: in vivo; settings: for % change in AUC glucose: single dose 10 mg/kg PO with glucose load 3 g/kg, male C57 mice fasted 18 h, AUC for 120 min, vs vehicle control; for efficacy compared with crystalline monohydrate phosphate salt (SP): acute oral glucose tolerance test in C57 mice, 10 mg/kg PO
Procedure: Eight to ten weeks old male C57BLKS/J mice obtained from Animal Research Facility of Zydus Research Centre were used. The mice were allowed ad libitum access to chow and water. Animals were on a 12-hour light, 12-hour dark cycle. Protocol for use of animals for conducting this study has been reviewed and approved by Institutional Animal Ethics Committee (IAEC).
Oral glucose tolerance test (OGTT) was performed on these animals. The mice were deprived of food for 18 h and then drug or vehicles were administered with a glucose load (3 g/kg) by oral route. Blood (200 μL) samples were collected at 0, 30, 60, 120 and 240 min. Serum glucose concentrations were determined using commercially available kits purchased from RFCL (New Delhi, India) using spectrophotometric assay. […] The area under the curve for 120 min was calculated, based on which the percentage inhibition was obtained for each treatment.

[2] = Stability of the novel salts versus free base (statement, no method given); assay type: physicochemical; settings: compared with the free base; no conditions given
[3] = After 3 Month storage at 25° C. ± 2° C./60% ± 5% RH
[4] = After 3 Month storage at 25° C. ± 2° C./60% ± 5% RH, listed as besylate crystalline(II)
[5] = Initial, listed as besylate crystalline(II)
[6] = After 3 Month storage at 25° C. ± 2° C./60% ± 5% RH, listed as besylate amorphous
[7] = Initial, listed as besylate amorphous

Q: Which results are given for Cl.N[C@@H](CC(=O)N1CCn2c(nnc2C(F)(F)F)C1)Cc1cc(F)c(F)cc1F [Hydrochloride crystalline, hydrochloride salt of (2R)-4-oxo-4-[3-(trifluoromethyl)-5,6-dihydro[1,2,4]triazolo[4,3-a]pyrazin-7(8H)-yl]-1-(2,4,5-trifluorophenyl)butan-2-amine]?
A: Description [1, 3]: white colored powder; Polymorphism XRD [1, 3]: No Change; Purity (By HPLC) [1, 3]: 99.91%; Water (by KFR) [1, 3]: 4.01%; Description ([1]; Initial): white colored powder; Polymorphism XRD ([1]; Initial): Crystalline pattern; Purity (By HPLC) ([1]; Initial): 99.82%; Water (by KFR) ([1]; Initial): 3.54%

Q: For N[C@@H](CC(=O)N1CCn2c(nnc2C(F)(F)F)C1)Cc1cc(F)c(F)cc1F [SB, (2R)-4-oxo-4-[3-(trifluoromethyl)-5,6-dihydro[1,2,4]triazolo[4,3-a]pyrazin-7(8H)-yl]-1-(2,4,5-trifluorophenyl)butan-2-amine, reference compound], which “% change in AUC glucose” value (male C57BLKS/J mice) is on record?
A: −36.5 ± 1.6%

Q: Which “Polymorphism XRD” value [1, 3] does the source give for N[C@@H](CC(=O)N1CCn2c(nnc2C(F)(F)F)C1)Cc1cc(F)c(F)cc1F.O=S(=O)(O)c1ccccc1 [SBII, crystalline besylate salt(II) of (2R)-4-oxo-4-[3-(trifluoromethyl)-5,6-dihydro[1,2,4]triazolo[4,3-a]pyrazin-7(8H)-yl]-1-(2,4,5-trifluorophenyl)butan-2-amine] here?
A: No Change

Q: What about the Description [1, 4] of the same molecule?
A: Off white colored

Q: What about the “Purity (By HPLC)” value [1, 4] of the same molecule?
A: 99.97%

Q: And the “Water (by KFR)” value [1, 4]?
A: 2.90%

Q: What about the Description ([1]; Initial) of the same molecule?
A: white colored powder

Q: What about the “Polymorphism XRD” value [1, 5] of the same molecule?
A: Crystalline pattern

Q: What about the “Purity (By HPLC)” value [1, 5] of the same molecule?
A: 99.87%

Q: What about the “Water (by KFR)” value [1, 5] of the same molecule?
A: 2.77%

Q: What about the “efficacy compared with crystalline monohydrate phosphate salt (SP)” value (male C57BLKS/J mice) of the same molecule?
A: better than

Q: What about the “% change in AUC glucose” value (male C57BLKS/J mice; 10 mg/kg) of the same molecule?
A: −45.7 ± 1.5%

Q: For N[C@@H](CC(=O)N1CCn2c(nnc2C(F)(F)F)C1)Cc1cc(F)c(F)cc1F.O=S(=O)(O)c1ccccc1 [SBa, amorphous besylate salt of (2R)-4-oxo-4-[3-(trifluoromethyl)-5,6-dihydro[1,2,4]triazolo[4,3-a]pyrazin-7(8H)-yl]-1-(2,4,5-trifluorophenyl)butan-2-amine], which “Polymorphism XRD” value [1, 3] is on record?
A: No Change

Q: And the Description [1, 6]?
A: white colored powder

Q: What about the “Purity (By HPLC)” value [1, 6] of the same molecule?
A: 99.52%

Q: And the “Water (by KFR)” value [1, 6]?
A: 3.14%

Q: And the Description ([1]; Initial)?
A: white colored powder

Q: And the “Polymorphism XRD” value [1, 7]?
A: amorphous pattern

Q: What about the “Purity (By HPLC)” value [1, 7] of the same molecule?
A: 99.41%

Q: What about the “Water (by KFR)” value [1, 7] of the same molecule?
A: 1.01%

Q: What about the “efficacy compared with crystalline monohydrate phosphate salt (SP)” value (male C57BLKS/J mice) of the same molecule?
A: better than

Q: What about the “% change in AUC glucose” value (male C57BLKS/J mice; 10 mg/kg) of the same molecule?
A: −43.3 ± 1.6%

Q: Which “% change in AUC glucose” value (male C57BLKS/J mice) does the source give for N[C@@H](CC(=O)N1CCn2c(nnc2C(F)(F)F)C1)Cc1cc(F)c(F)cc1F.O=P(O)(O)O [SP, (2R)-4-oxo-4-[3-(trifluoromethyl)-5,6-dihydro[1,2,4]triazolo[4,3-a]pyrazin-7(8H)-yl]-1-(2,4,5-trifluorophenyl)butan-2-amine phosphate salt, reference compound] here?
A: −31.9 ± 1.8%

Q: For N[C@@H](CC(=O)N1CCn2c(nnc2C(F)(F)F)C1)Cc1cc(F)c(F)cc1F.O=C(O)C(F)(F)F [TFA salt, Trifluoroacetic acid salt of (2R)-4-oxo-4-[3-(trifluoromethyl)-5,6-dihydro[1,2,4]triazolo[4,3-a]pyrazin-7(8H)-yl]-1-(2,4,5-trifluorophenyl)butan-2-amine], which Description [1, 3] is on record?
A: white colored powder

Q: And the “Polymorphism XRD” value [1, 3]?
A: No Change

Q: What about the “Purity (By HPLC)” value [1, 3] of the same molecule?
A: 97.5%

Q: And the “Water (by KFR)” value [1, 3]?
A: 3.45%

Q: What about the Description ([1]; Initial) of the same molecule?
A: white colored powder

Q: And the “Polymorphism XRD” value ([1]; Initial)?
A: Crystalline pattern

Q: And the “Purity (By HPLC)” value ([1]; Initial)?
A: 97.89%

Q: And the “Water (by KFR)” value ([1]; Initial)?
A: 2.77%

Q: With N[C@@H](CC(=O)N1CCn2c(nnc2C(F)(F)F)C1)Cc1cc(F)c(F)cc1F.O=C(O)CCCCC(=O)O [adipate, adipic acid salt of (2R)-4-oxo-4-[3-(trifluoromethyl)-5,6-dihydro[1,2,4]triazolo[4,3-a]pyrazin-7(8H)-yl]-1-(2,4,5-trifluorophenyl)butan-2-amine] as the molecule, how does the “stability of the salt” value [2] read?
A: very stable

Q: What does the source list for “(2R)-4-oxo-4-[3-(trifluoromethyl)-5,6-dihydro[1,2,4]triazolo[4,3-a]pyrazin-7(8H)-yl]-1-(2,4,5-trifluorophenyl)butan-2-amine gentisate [SG]”?
A: stability of the salt [2]: very stable; efficacy compared with crystalline monohydrate phosphate salt (SP) (male C57BLKS/J mice): better than; % change in AUC glucose (male C57BLKS/J mice): −39.4 ± 1.8%
